Measurements from patent publication US20200095223A1, “NOVEL TRIAZOLETHIONE DERIVATIVES” (priority 2017, published 2020).

Test: Log P by HPLC on reversed phase columns (EEC directive 79/831 Annex V.A8)
Type: physicochemical
Details: reversed phase HPLC column; method [a]: LC-UV, acidic range, 0.1% formic acid in water and acetonitrile as eluent
Method: Log P values: […] If more than one Log P value is available within the same method, all the values are given and separated by “+”. Calibration was done with straight-chain alkan2-ones (with 3 to 16 carbon atoms) with known Log P values (measurement of Log P values using retention times with linear interpolation between successive alkanones). Lambda-max-values were determined using UV-spectra from 200 nm to 400 nm and the peak values of the chromatographic signals.

| SMILES | chromatographic logP |
| --- | --- |
| CC(O)(Cn1nc[nH]c1=S)c1ccc(Oc2ccccc2)nc1C(F)(F)F (centres unmarked) [I-S-02, 2-[2-hydroxy-2-[6-phenoxy-2-(trifluoromethyl)-3-pyridyl]propyl]-4H-1,2,4-triazole-3-thione] | 2.66 |
| CC(O)(Cn1nc[nH]c1=S)c1ccc(Oc2ccc(Br)cc2)nc1C(F)(F)F (centres unmarked) [I-S-01, 2-[2-[6-(4-bromophenoxy)-2-(trifluoromethyl)-3-pyridyl]-2-hydroxy-propyl]-4H-1,2,4-triazole-3-thione] | 3.21 |
| OC(Cn1nc[nH]c1=S)(c1ccc(Oc2ccccc2)nc1C(F)(F)F)C1CC1 (centres unmarked) [I-S-06, 2-[2-cyclopropyl-2-hydroxy-2-[6-phenoxy-2-(trifluoromethyl)-3-pyridyl]ethyl]-4H-1,2,4-triazole-3-thione] | 3.27 |
| CC(O)(Cn1nc[nH]c1=S)c1ccc(Oc2ccc(Cl)cc2)nc1C(F)(F)F (centres unmarked) [I-S-03, 2-[2-[6-(4-chlorophenoxy)-2-(trifluoromethyl)-3-pyridyl]-2-hydroxy-propyl]-4H-1,2,4-triazole-3-thione] | 3.11 |
| OC(Cn1nc[nH]c1=S)(c1ccc(Oc2ccc(Br)cc2)nc1C(F)(F)F)C1CC1 (centres unmarked) [I-S-04, 2-[2-[6-(4-bromophenoxy)-2-(trifluoromethyl)-3-pyridyl]-2-cyclopropyl-2-hydroxy-ethyl]-4H-1,2,4-triazole-3-thione] | 3.87 |
